Patent US20060069132A1, “Azolecarboxamide herbicides” (priority 2004, published 2006)

Experiments:
lambsquarters = assay: Test B pre-/postemergence herbicide test; type: in vivo, Chenopodium album
Procedure, shortened: (§1)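 Greenhouse pot assay with simultaneous preemergence (treated seed) and postemergence (2–18 cm seedlings) applications of surfactant-containing, non-phytotoxic solvent formulations. Response scored visually 13–15 days later on a 0–100 scale, 100 meaning complete control.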

blackgrass = assay: Test B postemergence herbicide test; type: in vivo, Alopecurus myosuroides
Procedure, shortened: (§2)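 Plants grow to 1- to 4-leaf stage (2–18 cm) for postemergence spraying, or to 2-leaf stage for the paddy test. Formulated compound is applied. Greenhouse holding lasts 13–15 days. Response is scored visually relative to controls, 0 no effect to 100 complete control; a dash means no result.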

barnyardgrass = assay: Test B pre-/postemergence herbicide test; type: in vivo, Echinochloa crus-galli
Procedure, shortened: (§3)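 Species tested were Echinochloa crus-galli, Ipomoea coccinea, Xanthium strumarium and Oryza sativa, treated both before emergence and at the 1- to 4-leaf stage; rice and barnyardgrass were also tested under flooding at 2 leaves. Greenhouse incubation lasted 13–15 days before visual 0–100 scoring.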

pigweed = assay: Test B pre-/postemergence herbicide test; type: in vivo, Amaranthus retroflexus
Procedure, shortened: as §1

wild oat = assay: Test B postemergence herbicide test; type: in vivo, Avena fatua
Procedure, shortened: (§4)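 After treating 2-leaf paddy plants or 2–18 cm postemergence plants (1 to 4 leaves) with formulated chemical, researchers kept them in a greenhouse for 13–15 days. Effects were judged visually versus controls: 0 indicates none, 100 total control.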

wheat = assay: Test B postemergence herbicide test; type: in vivo, Triticum aestivum; design: key to Wheat plant response rating: 0 = no effect, 100 = complete control
Procedure, shortened: as §4

velvetleaf = assay: Test B pre-/postemergence herbicide test; type: in vivo, Abutilon theophrasti
Procedure, shortened: as §1

Surinam grass = assay: Test B pre-/postemergence herbicide test; type: in vivo, Urochloa decumbens
Procedure, shortened: as §1

ducksalad = assay: Test B flooded paddy test; type: in vivo, Heteranthera limosa; details: 1000 g ai/ha, scale 0 to 100 (0 no effect, 100 complete control)
Procedure, shortened: as §2

rice = assay: Test B flooded paddy test; type: in vivo, Oryza sativa; details: 1000 g ai/ha, scale 0 to 100 (0 no effect, 100 complete control)
Procedure, shortened: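 Greenhouse test; postemergence application to plants at 1–4 leaves (2–18 cm); paddy species at 2 leaves; evaluated visually vs controls at 13–15 days; scale 0–100 (100 = complete control).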

corn = assay: Test B pre-/postemergence herbicide test; type: in vivo, Zea mays
Procedure, shortened: as §1

cocklebur = assay: Test B pre-/postemergence herbicide test; type: in vivo, Xanthium strumarium
Procedure, shortened: as §3

[1] = tested on: small flower umbrella sedge; assay: Test B flooded paddy test; type: in vivo, Cyperus difformis; details: 1000 g ai/ha, scale 0 to 100 (0 no effect, 100 complete control)
Procedure, shortened: as §2

large crabgrass = assay: Test B pre-/postemergence herbicide test; type: in vivo, Digitaria sanguinalis
Procedure, shortened: as §1

giant foxtail = assay: Test B pre-/postemergence herbicide test; type: in vivo, Setaria faberi
Procedure, shortened: as §1

[2] = 500 g ai/ha; visual rating 0-100, 0 no effect, 100 complete control; preemergence
[3] = Postemergence, 500 g ai/ha; visual rating after 13 to 15 days, scale 0 (no effect) to 100 (complete control)
[4] = postemergence, 125 g ai/ha; visual rating, scale 0 (no effect) to 100 (complete control)
[5] = preemergence, 125 g ai/ha; 0 to 100 scale, 0 is no effect, 100 is complete control
[6] = 125 g ai/ha; 0 is no effect, 100 is complete control; preemergence
[7] = 125 g ai/ha; visual rating, scale 0 (no effect) to 100 (complete control); postemergence
[8] = 500 g ai/ha; visual rating, 0 = no effect, 100 = complete control; preemergence
[9] = postemergence, 500 g ai/ha; scale 0 to 100, 0 is no effect, 100 is complete control

Structure (SMILES): CCn1nc(C(C)(C)C)cc1C(=O)Nc1cccc(C(C)=NO)c1 [Compound 108]
- Plant response rating, Lambsquarters (lambsquarters; [2]): 100
- Plant response rating, Lambsquarters (lambsquarters; [3]): 100
- Lambsquarters plant response rating (lambsquarters; [4]): 90
- Plant response rating, Lambsquarters (lambsquarters; [5]): 100
- Plant response rating, Blackgrass (blackgrass; [3]): 20
- Blackgrass plant response rating (blackgrass; [4]): 0
- Plant response rating, Barnyardgrass (barnyardgrass; [2]): 90
- Plant response rating, Barnyardgrass (barnyardgrass; [3]): 70
- Barnyardgrass plant response rating (barnyardgrass; [4]): 10
- Plant response rating, Barnyardgrass (barnyardgrass; [5]): 80
- Plant response rating, Pigweed (pigweed; [2]): 100
- Plant response rating, Pigweed (pigweed; [3]): 100
- Pigweed plant response rating (pigweed; [4]): 80
- Plant response rating, Pigweed (pigweed; [5]): 90
- Plant response rating, Oat, Wild (wild oat; [3]): 50
- Oat, Wild plant response rating (wild oat; [4]): 20
- Plant response rating, Wheat (wheat; [3]): 20
- Wheat plant response rating (wheat; [4]): 10
- Plant response rating, Velvetleaf (velvetleaf; [2]): 100
- Plant response rating, Velvetleaf (velvetleaf; [3]): 70
- Velvetleaf plant response rating (velvetleaf; [4]): 50
- Plant response rating, Velvetleaf (velvetleaf; [5]): 80
- Plant response rating, Surinam Grass (Surinam grass; [2]): 80
- Plant response rating, Surinam Grass (Surinam grass; [3]): 10
- Surinam Grass plant response rating (Surinam grass; [4]): 10
- Plant response rating, Surinam Grass (Surinam grass; [5]): 50
- Ducksalad plant response rating (ducksalad; visual rating, 13 to 15 days): 90
- Rice plant response rating (rice; visual rating, 13 to 15 days): 70
- Plant response rating, Corn (corn; [2]): 30
- Plant response rating, Corn (corn; [3]): 20
- Corn plant response rating (corn; [4]): 10
- Plant response rating, Corn (corn; [5]): 10
- Plant response rating, Cocklebur (cocklebur; [2]): 30
- Plant response rating, Cocklebur (cocklebur; [3]): 90
- Cocklebur plant response rating (cocklebur; [4]): 70
- Plant response rating, Cocklebur (cocklebur; [5]): 10
- Sedge, Umbrella plant response rating ([1]; visual rating, 13 to 15 days): 90
- Plant response rating, Crabgrass, Large (large crabgrass; [2]): 100
- Plant response rating, Crabgrass, Large (large crabgrass; [3]): 70
- Crabgrass, Large plant response rating (large crabgrass; [4]): 20
- Plant response rating, Crabgrass, Large (large crabgrass; [5]): 100
- Plant response rating, Foxtail, Giant (giant foxtail; [2]): 100
- Plant response rating, Foxtail, Giant (giant foxtail; [3]): 30
- Foxtail, Giant plant response rating (giant foxtail; [4]): 10
- Plant response rating, Foxtail, Giant (giant foxtail; [5]): 90

Structure (SMILES): CCC1=NN(C(C)(C)C)CC1C(=O)Nc1cc(C(=O)N(C)CC)ccc1F (racemic) [Compound 342]
- Plant response rating (0 to 100 scale), Lambsquarters (lambsquarters; [6]): 80
- Lambsquarters plant response rating (lambsquarters; [7]): 60
- Plant response rating, Lambsquarters (lambsquarters; [8]): 100
- Lambsquarters plant response rating (lambsquarters; [9]): 100
- Blackgrass plant response rating (blackgrass; [7]): 20
- Blackgrass plant response rating (blackgrass; [9]): 30
- Plant response rating (0 to 100 scale), Barnyardgrass (barnyardgrass; [6]): 70
- Barnyardgrass plant response rating (barnyardgrass; [7]): 10
- Plant response rating, Barnyardgrass (barnyardgrass; [8]): 100
- Barnyardgrass plant response rating (barnyardgrass; [9]): 20
- Plant response rating (0 to 100 scale), Pigweed (pigweed; [6]): 80
- Pigweed plant response rating (pigweed; [7]): 40
- Plant response rating, Pigweed (pigweed; [8]): 100
- Pigweed plant response rating (pigweed; [9]): 80
- Oat, Wild plant response rating (wild oat; [7]): 20
- Oat, Wild plant response rating (wild oat; [9]): 30
- Wheat plant response rating (wheat; [7]): 0
- Wheat plant response rating (wheat; [9]): 10
- Plant response rating (0 to 100 scale), Velvetleaf (velvetleaf; [6]): 70
- Velvetleaf plant response rating (velvetleaf; [7]): 20
- Velvetleaf plant response rating (velvetleaf; [9]): 50
- Plant response rating (0 to 100 scale), Surinam Grass (Surinam grass; [6]): 50
- Surinam Grass plant response rating (Surinam grass; [7]): 10
- Plant response rating, Surinam Grass (Surinam grass; [8]): 100
- Surinam Grass plant response rating (Surinam grass; [9]): 20
- Ducksalad plant response rating (ducksalad): 80
- Rice plant response rating (rice): 70
- Corn plant response rating (corn; [7]): 10
- Corn plant response rating (corn; [9]): 30
- Plant response rating (0 to 100 scale), Cocklebur (cocklebur; [6]): 40
- Cocklebur plant response rating (cocklebur; [7]): 10
- Plant response rating, Cocklebur (cocklebur; [8]): 90
- Cocklebur plant response rating (cocklebur; [9]): 20
- Sedge, Umbrella plant response rating [1]: 70
- Plant response rating (0 to 100 scale), Crabgrass, Large (large crabgrass; [6]): 40
- Crabgrass, Large plant response rating (large crabgrass; [7]): 10
- Plant response rating, Crabgrass, Large (large crabgrass; [8]): 100
- Crabgrass, Large plant response rating (large crabgrass; [9]): 20
- Plant response rating (0 to 100 scale), Foxtail, Giant (giant foxtail; [6]): 40
- Foxtail, Giant plant response rating (giant foxtail; [7]): 20
- Plant response rating, Foxtail, Giant (giant foxtail; [8]): 90
- Foxtail, Giant plant response rating (giant foxtail; [9]): 50

Structure (SMILES): CCC1=NN(C(C)(C)C)CC1C(=O)Nc1cc(C(=O)N2CC=CC2)ccc1F (racemic) [Compound 340]
- Plant response rating (0 to 100 scale), Lambsquarters (lambsquarters; [6]): 90
- Lambsquarters plant response rating (lambsquarters; [7]): 30
- Plant response rating, Lambsquarters (lambsquarters; [8]): 100
- Lambsquarters plant response rating (lambsquarters; [9]): 70
- Blackgrass plant response rating (blackgrass; [7]): 20
- Blackgrass plant response rating (blackgrass; [9]): 30
- Plant response rating (0 to 100 scale), Barnyardgrass (barnyardgrass; [6]): 80
- Barnyardgrass plant response rating (barnyardgrass; [7]): 10
- Plant response rating, Barnyardgrass (barnyardgrass; [8]): 100
- Barnyardgrass plant response rating (barnyardgrass; [9]): 20
- Plant response rating (0 to 100 scale), Pigweed (pigweed; [6]): 100
- Pigweed plant response rating (pigweed; [7]): 50
- Plant response rating, Pigweed (pigweed; [8]): 100
- Pigweed plant response rating (pigweed; [9]): 80
- Oat, Wild plant response rating (wild oat; [7]): 20
- Oat, Wild plant response rating (wild oat; [9]): 30
- Wheat plant response rating (wheat; [7]): 0
- Wheat plant response rating (wheat; [9]): 10
- Plant response rating (0 to 100 scale), Velvetleaf (velvetleaf; [6]): 70
- Velvetleaf plant response rating (velvetleaf; [7]): 20
- Velvetleaf plant response rating (velvetleaf; [9]): 40
- Plant response rating (0 to 100 scale), Surinam Grass (Surinam grass; [6]): 80
- Surinam Grass plant response rating (Surinam grass; [7]): 10
- Plant response rating, Surinam Grass (Surinam grass; [8]): 100
- Surinam Grass plant response rating (Surinam grass; [9]): 20
- Ducksalad plant response rating (ducksalad): 90
- Rice plant response rating (rice): 80
- Corn plant response rating (corn; [7]): 0
- Corn plant response rating (corn; [9]): 20
- Plant response rating (0 to 100 scale), Cocklebur (cocklebur; [6]): 20
- Cocklebur plant response rating (cocklebur; [7]): 0
- Plant response rating, Cocklebur (cocklebur; [8]): 50
- Cocklebur plant response rating (cocklebur; [9]): 20
- Sedge, Umbrella plant response rating [1]: 80
- Plant response rating (0 to 100 scale), Crabgrass, Large (large crabgrass; [6]): 80
- Crabgrass, Large plant response rating (large crabgrass; [7]): 10
- Plant response rating, Crabgrass, Large (large crabgrass; [8]): 100
- Crabgrass, Large plant response rating (large crabgrass; [9]): 20
- Plant response rating (0 to 100 scale), Foxtail, Giant (giant foxtail; [6]): 60
- Foxtail, Giant plant response rating (giant foxtail; [7]): 20
- Plant response rating, Foxtail, Giant (giant foxtail; [8]): 100
- Foxtail, Giant plant response rating (giant foxtail; [9]): 40
